Experimental findings from US11191762B2, “Alkyl substituted triazole compounds as agonists of the APJ Receptor” (priority 2016, dated 2021) are described below.

In the first assay the target is human APJ receptor (Homo sapiens (Human), UniProt P35414). In words: biochemical. The class given is biochemical.
human APJ receptor, sequence (P35414 whole entry): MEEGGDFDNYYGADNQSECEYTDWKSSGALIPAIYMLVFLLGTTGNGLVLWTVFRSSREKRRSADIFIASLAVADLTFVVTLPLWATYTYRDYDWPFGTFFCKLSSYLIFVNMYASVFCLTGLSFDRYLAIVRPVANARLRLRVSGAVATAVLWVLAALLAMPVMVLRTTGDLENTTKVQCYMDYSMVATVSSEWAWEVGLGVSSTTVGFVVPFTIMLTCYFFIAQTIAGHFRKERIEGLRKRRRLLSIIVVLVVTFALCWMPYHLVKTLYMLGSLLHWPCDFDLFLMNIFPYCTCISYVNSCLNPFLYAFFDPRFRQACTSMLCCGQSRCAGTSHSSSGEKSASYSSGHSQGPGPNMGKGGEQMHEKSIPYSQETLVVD
Conditions: not given
How it is done:
The human APJ receptor was cloned by polymerase chain reaction and the gene encoding the receptor was subcloned in pFLAG-CMV™-3 expression vector (Sigma, Saint Louis, Mo. USA) in-house at Amgen. A GTPγS binding assay was performed on membranes prepared from CHO cells stably expressing human APJ receptor. The optimum experimental conditions for the concentrations of GDP, MgCl2, and NaCl in the assay buffer were initially determined. The assay was performed in 9 μL assay buffer [20 mM HEPES, pH 7.5, 5 mM MgCl2, 100 mM NaCl and 0.1% (w/v) BSA], 1 μL of diluted test compound (starting with 0.75 mM, 2-fold serial dilution with DMSO, total 22 points), 10 μL of 18 µM GDP (final concentration of 3 μM GDP), 20 μL of […] membrane protein expressing human APJ receptor captured with WGA PS beads (final concentration of 5 μg per well), and 20 μL of 0.3 nM [^35S]GTPγS (final concentration is 0.1 nM [^35S]GTPγS)(Perkin Elmer Life and Analytical Sciences, Waltham USA).
In the case of `[2H]C([2H])([2H])OCc1nnc(NS(=O)(=O)[C@@H](C)[C@H](OC)c2ncc(Cl)cn2)n1-c1c(OC)cccc1OC` [Example 129.0, (1R,2S)-1-(5-chloro-2-pyrimidinyl)-N-(4-(2,6-dimethoxyphenyl)-5-(((˜2-H_3_)methyloxy)methyl)-4H-1,2,4-triazol-3-yl)-1-methoxy-2-propanesulfonamide], the midpoint of the response, the EC50, lay at 4.3 nM.

Staying with this assay, now noted: [35S]GTPγS binding, membranes from CHO cells stably expressing human APJ receptor; read-out: Activity hAPJ SPA EC50 IP.
As for `COCc1nnc(NS(=O)(=O)[C@@H](C)[C@H](OC)c2ncc(Cl)cn2)n1C(COC)COC` [Example 124.0, (1R,2S)-1-(5-Chloro-2-pyrimidinyl)-N-(4-(1,3-dimethoxy-2-propanyl)-5-(methoxymethyl)-4H-1,2,4-triazol-3-yl)-1-methoxy-2-propanesulfonamide], the EC50 is 85 nM.
As for `CCCCc1nnc(NS(=O)(=O)[C@@H](C)[C@H](C)c2ncc(Cl)cn2)n1-c1c(OC)cccc1OC` [Example 164.0], the EC50 was 0.84 nM.
On the same count and under the same terms, the result for `CO[C@H](c1ncc(Cl)cn1)[C@H](C)S(=O)(=O)Nc1nnc(CC2CCC2)n1C1CCOCC1` [Example 25.0, (1R,2S)-1-(5-chloro-2-pyrimidinyl)-N-(5-(cyclobutylmethyl)-4-(tetrahydro-2H-pyran-4-yl)-4H-1,2,4-triazol-3-yl)-1-methoxy-2-propanesulfonamide] reads 370 nM; that for “(S)-N-(4-(2,6-dimethoxyphenyl)-5-(methoxymethyl)-4H-1,2,4-triazol-3-yl)-l-(5-fluoropyrimidin-2-yl)piperidine-3-sulfonamide or (R)-N-(4-(2,6-dimethoxyphenyl)-5-(methoxymethyl)-4H-1,2,4-triazol-3-yl)-l-(5-fluoropyrimidin-2-yl)piperidine-3-sulfonamide [Example 78.0]”, 615 nM.
On the same count and under the same terms, next, `COc1cccc(OC)c1-n1c(CCN2CCN(C)CC2)nnc1NS(=O)(=O)[C@@H](C)[C@H](OC)c1ncc(C)cn1` [Example 53.0]: 54 nM; `COc1cccc(OC)c1-n1c(NS(=O)(=O)[C@@H](C)[C@H](C)c2ncc(C)cn2)nnc1[C@@H](OC)c1ccccc1` [Example 19.0, (2S,3R)-N-(4-(2,6-dimethoxyphenyl)-5-((S)-methoxy(phenyl)methyl)-4H-1,2,4-triazol-3-yl)-3-(5-methyl-2-pyrimidinyl)-2-butanesulfonamide]: 200 nM.
Same read-out and setting: next, `COc1cccc(OC)c1-n1c(CCN(C)C)nnc1NS(=O)(=O)[C@@H](C)[C@H](OC)c1ncc(C)cn1` [Example 51.0]: 520 nM.
In the case of `COc1cccc(OC)c1-n1c(CS(C)(=O)=O)nnc1NS(=O)(=O)[C@@H](C)[C@H](C)c1ncc(Cl)cn1` [Example 37.0, (2S,3R)-3-(5-chloro-2-pyrimidinyl)-N-(4-(2,6-dimethoxyphenyl)-5-((methylsulfonyl)methyl)-4H-1,2,4-triazol-3-yl)-2-butanesulfonamide], the EC50 turned out to be 340 nM.
On the same count and under the same terms, the result for “(S)-N-(4-(2,6-dimethoxyphenyl)-5-(methoxymethyl)-4H-1,2,4-triazol-3-yl)-1-(5-fluoropyrimidin-2-yl)piperidine-3-sulfonamide or (R)-N-(4-(2,6-dimethoxyphenyl)-5-(methoxymethyl)-4H-1,2,4-triazol-3-yl)-1-(5-fluoropyrimidin-2-yl)piperidine-3-sulfonamide [Example 77.0]” reads 176 nM; that for `COc1ncnc(OC)c1-n1c(CC2CCCCC2)nnc1NS(=O)(=O)[C@@H](C)[C@H](OC)c1ncc(Cl)cn1` [Example 29.0, (1R,2S)-1-(5-chloro-2-pyrimidinyl)-N-(5-(cyclohexylmethyl)-4-(4,6-dimethoxy-5-pyrimidinyl)-4H-1,2,4-triazol-3-yl)-1-methoxy-2-propanesulfonamide], 21 nM.

The same assay, now with this note: read-out: Activity hAPJ SPA EC50 IP.
Regarding `COCc1nnc(NS(=O)(=O)[C@@H](C)[C@@H](OC(C)C)c2ncc(C)cn2)n1-c1c(OC)cccc1OC` [Example 62.0, (1S,2S)-N-(4-(2,6-dimethoxyphenyl)-5-(methoxymethyl)-4H-1,2,4-triazol-3-yl)-1-isopropoxy-1-(5-methylpyrimidin-2-yl)propane-2-sulfonamide], the EC50 is 1000 nM.

The EC50 is the midpoint of the concentration-response curve.
